The record followed here is ChEMBL document CHEMBL4138253, “Synthesis and Biological Evaluation of a Series of Bile Acid Derivatives as FXR Agonists for Treatment of NASH” (ACS Med Chem Lett, 2017).

The target in data set [1] is T1, G-protein coupled bile acid receptor 1 (Homo sapiens, UniProt Q8TDU6).
T1 sequence (Q8TDU6 whole entry): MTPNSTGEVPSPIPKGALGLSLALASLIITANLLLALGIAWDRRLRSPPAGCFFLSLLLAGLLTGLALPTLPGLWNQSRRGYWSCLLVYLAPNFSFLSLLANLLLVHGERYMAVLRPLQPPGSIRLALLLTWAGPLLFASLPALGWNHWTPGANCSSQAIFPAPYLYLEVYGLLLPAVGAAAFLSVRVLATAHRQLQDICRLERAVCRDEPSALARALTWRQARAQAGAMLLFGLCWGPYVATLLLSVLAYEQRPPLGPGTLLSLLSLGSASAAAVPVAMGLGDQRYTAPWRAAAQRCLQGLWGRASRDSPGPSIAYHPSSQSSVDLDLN
As to the kind of experiment: Agonist activity at human TGR5 expressed in HEK293 cells assessed as increase in intracellular cAMP level after 1 hr by TR-FRET assay. Format: functional, cell-based. (cAMP levels reflect the balance of adenylyl cyclase and phosphodiesterase activity.)

The species entered for the next data set is Homo sapiens. As to the kind of experiment: Selectivity ratio of EC50 for recombinant human GST-tagged FXR LBD (193 to 472 residues) expressed in baculovirus-infected insect cells to EC50 for human TGR5 expressed in HEK293 cells.
A short description of data set [2]: Drug level in C57BL/6 mouse liver at 2 mg/kg, po administered as single cassette dose via gavage measured at 0.5 hrs post dose by LC-MS/MS analysis. The settings on record: in vivo. Format: ADME, organism-based.
The nature of data set [3]: Drug level in C57BL/6 mouse liver at 2 mg/kg, po administered as single cassette dose via gavage measured at 3 hrs post dose by LC-MS/MS analysis. Format: ADME, organism-based. The settings on record: in vivo.
Data set [4] can be described thus: Drug level in C57BL/6 mouse plasma at 2 mg/kg, po administered as single dose via gavage measured at 0.5 hrs post dose by LC-MS/MS analysis. The data set is classed as ADME, organism-based.
The nature of data set [5]: Drug level in C57BL/6 mouse plasma at 2 mg/kg, po administered as single cassette dose via gavage measured at 3 hrs post dose by LC-MS/MS analysis. The data set is classed as ADME, organism-based.
Data set [6] can be described thus: Ratio of drug level in liver to plasma in C57BL/6 mouse at 2 mg/kg, po administered as single cassette dose via gavage measured at 0.5 hrs post dose. Format: ADME, organism-based.
A short description of data set [7]: Ratio of drug level in liver to plasma in C57BL/6 mouse at 2 mg/kg, po administered as single cassette dose via gavage measured at 3 hrs post dose. Format: ADME, organism-based.
The nature of data set [8]: AUC in C57BL/6 mouse at 10 mg/kg, po administered via gavage. Format: ADME, organism-based. The settings on record: in vivo.
For data set [9], the system named is Mus musculus. As to the kind of experiment: AUC in C57BL/6 mouse assessed as glyco-INT-747 level at 10 mg/kg, po administered via gavage. Format: ADME, organism-based. As to conditions: in vivo, BLD = below limit of detection.
Data set [10] deals with Mus musculus. Nature of the data set: AUC in C57BL/6 mouse assessed as tauro-INT-747 level at 10 mg/kg, po administered via gavage. Format: ADME, organism-based. The settings on record: in vivo.
The subject of data set [11] is Mus musculus. As to the kind of experiment: AUC in C57BL/6 mouse assessed as INT-747 level at 10 mg/kg, po administered via gavage. Format: ADME, organism-based. As to conditions: in vivo.
Data set [12] in a line: Cmax in C57BL/6 mouse at 10 mg/kg, po administered via gavage. The data set is classed as ADME, organism-based. On the set-up: dose 10 mg/kg, route oral. The settings on record: in vivo.
For data set [13], the system named is Mus musculus. As to the kind of experiment: Cmax in C57BL/6 mouse assessed as glyco-INT-747 level at 10 mg/kg, po administered via gavage. The data set is classed as ADME, organism-based. On the set-up: dose 10 mg/kg, route oral. The settings on record: in vivo, BLD = below limit of detection.
Data set [14] concerns Mus musculus. Nature of the data set: Cmax in C57BL/6 mouse assessed as tauro-INT-747 level at 10 mg/kg, po administered via gavage. Format: ADME, organism-based. On the set-up: dose 10 mg/kg, route oral. As to conditions: in vivo.
Data set [15] has as its system Mus musculus. As to the kind of experiment: Cmax in C57BL/6 mouse assessed as INT-747 level at 10 mg/kg, po administered via gavage. The data set is classed as ADME, organism-based. On the set-up: dose 10 mg/kg, route oral. The settings on record: in vivo.
A short description of data set [16]: Tmax in C57BL/6 mouse at 10 mg/kg, po administered via gavage. Format: ADME, organism-based. As to conditions: in vivo.
Data set [17] is described as follows: Drug level in C57BL/6 mouse liver at 10 mg/kg, po administered as single dose via gavage measured at 0.5 hrs post dose by LC-MS/MS analysis. The data set is classed as ADME, organism-based. The settings on record: in vivo.
The test system of data set [18] is Mus musculus. Nature of the data set: Tmax in C57BL/6 mouse assessed as tauro-INT-747 level at 10 mg/kg, po administered via gavage. As to conditions: in vivo. Format: ADME, organism-based.
Data set [19] has as its system Mus musculus. As to the kind of experiment: Tmax in C57BL/6 mouse assessed as INT-747 level at 10 mg/kg, po administered via gavage. Format: ADME, organism-based. As to conditions: in vivo.
Data set [20] is described as follows: Drug level in C57BL/6 mouse liver at 10 mg/kg, po administered as single dose via gavage measured at 3 hrs post dose by LC-MS/MS analysis. Format: ADME, organism-based. As to conditions: in vivo.
Data set [21] is described as follows: Drug metabolism in C57BL/6 mouse liver assessed as INT-747 level at 10 mg/kg, po administered as single dose via gavage measured at 0.5 hrs post dose by LC-MS/MS analysis. The data set is classed as ADME, organism-based. The settings on record: in vivo.
Data set [22] is described as follows: Drug metabolism in C57BL/6 mouse liver assessed as INT-747 level at 10 mg/kg, po administered as single dose via gavage measured at 3 hrs post dose by LC-MS/MS analysis. The settings on record: in vivo. Format: ADME, organism-based.
Data set [23] in a line: Drug level in C57BL/6 mouse plasma at 10 mg/kg, po administered as single dose via gavage measured at 0.5 hrs post dose by LC-MS/MS analysis. Format: ADME, organism-based.
Data set [24] in a line: Drug level in C57BL/6 mouse plasma at 10 mg/kg, po administered as single dose via gavage measured at 3 hrs post dose by LC-MS/MS analysis. Format: ADME, organism-based.
Data set [25] in a line: Drug metabolism in C57BL/6 mouse plasma assessed as INT-747 level at 10 mg/kg, po administered as single dose via gavage measured at 3 hrs post dose by LC-MS/MS analysis. The settings on record: in vivo. Format: ADME, organism-based.
A short description of data set [26]: Ratio of drug level in C57BL/6 mouse liver to plasma at 10 mg/kg, po administered as single dose via gavage measured at 0.5 hrs post dose by LC-MS/MS analysis. Format: ADME, organism-based.
The nature of data set [27]: Ratio of drug level in C57BL/6 mouse liver to plasma at 10 mg/kg, po administered as single dose via gavage measured at 3 hrs post dose by LC-MS/MS analysis. The data set is classed as ADME, organism-based.
Data set [28] is described as follows: Drug metabolism in C57BL/6 mouse assessed as ratio of INT-747 level in liver to plasma at 10 mg/kg, po administered as single dose via gavage measured at 0.5 hrs post dose by LC-MS/MS analysis. The data set is classed as ADME, organism-based. The settings on record: other tissue.
The nature of data set [29]: Drug metabolism in C57BL/6 mouse assessed as ratio of INT-747 level in liver to plasma at 10 mg/kg, po administered as single dose via gavage measured at 3 hrs post dose by LC-MS/MS analysis. The data set is classed as ADME, organism-based. As to conditions: other tissue.
Data set [30] has as its system Mus musculus. As to the kind of experiment: Anti-hepatic steatosis activity in HFD/CCl4-induced non-alcoholic hepatic steatosis C57BL/6 mouse model assessed as reduction in hepatic steatosis score administered once daily via oral gavage for 28 days measured at post last dose by hematoxylin-eosin staining based assay. The data set is classed as ADME, organism-based. The settings on record: in vivo, 672 h.

In data set [31] the test system is Mus musculus. As to the kind of experiment: Anti-hepatic steatosis activity in HFD/CCl4-induced non-alcoholic hepatic steatosis C57BL/6 mouse model assessed as reduction in liver fibrosis administered once daily via oral gavage for 28 days measured at post last dose by sirus red staining based assay. Format: ADME, organism-based. The settings on record: in vivo, 672 h.

Data set [32] deals with Mus musculus. As to the kind of experiment: Anti-hepatic steatosis activity in HFD/CCl4-induced non-alcoholic hepatic steatosis C57BL/6 mouse model assessed as reduction in triglyceride level administered once daily via oral gavage for 28 days measured at post last dose by […] assay. Format: ADME, organism-based. The settings on record: in vivo, 672 h.

In data set [33] the target is T2, Bile acid receptor (Homo sapiens, UniProt Q96RI1).
T2 sequence (Q96RI1 whole entry): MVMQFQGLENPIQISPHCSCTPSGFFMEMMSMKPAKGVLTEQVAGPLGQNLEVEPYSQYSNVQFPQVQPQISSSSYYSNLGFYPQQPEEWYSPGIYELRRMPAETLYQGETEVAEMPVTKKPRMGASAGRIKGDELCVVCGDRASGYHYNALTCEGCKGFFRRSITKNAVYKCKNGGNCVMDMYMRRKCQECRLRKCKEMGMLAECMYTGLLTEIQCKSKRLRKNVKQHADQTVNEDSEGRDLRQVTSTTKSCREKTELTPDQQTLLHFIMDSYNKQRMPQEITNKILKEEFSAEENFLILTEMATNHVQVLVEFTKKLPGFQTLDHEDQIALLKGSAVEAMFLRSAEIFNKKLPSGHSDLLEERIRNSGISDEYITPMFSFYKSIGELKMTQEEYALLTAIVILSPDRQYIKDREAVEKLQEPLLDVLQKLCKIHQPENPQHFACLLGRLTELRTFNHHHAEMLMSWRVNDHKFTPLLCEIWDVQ
As to the kind of experiment: Agonist activity at recombinant human Gal4-fused FXR expressed in CHO cells measured after 22 hrs by luciferase reporter gene assay. The data set is classed as cell-based. Background: In a reporter assay the amount or activity of a reporter protein is the signal.

The target of data set [34] is T3, Bile acid receptor (Homo sapiens) (UniProt Q96RI1).
T3 sequence (whole entry): T2 sequence (Q96RI1 whole entry)
As to the kind of experiment: Agonist activity at recombinant human Gal4-fused FXR expressed in CHO cells measured after 22 hrs by luciferase reporter gene assay relative to CDCA. Format: cell-based.

For data set [35], the target named is T3, Bile acid receptor (Homo sapiens). Nature of the data set: (§1) Agonist activity at human FXR assessed as recruitment of SRC1 peptide by TR-FRET assay. On the technique in general: In TR-FRET formats the signal depends on donor and acceptor labels being close together.
Data set [36] deals with T2, Bile acid receptor. The description is as §1.

The term EC50 denotes the concentration that produces a half-maximal response. What is called Kp is the ratio of the level in a tissue or fluid to that in plasma or blood. In general, AUC refers to the area under the concentration-time curve, a measure of exposure. Usually Cmax stands for the peak of the concentration-time curve. What is called Tmax is the time at which the peak concentration occurs. `CC[C@H]1[C@@H](O)[C@@H]2[C@H](CC[C@]3(C)[C@@H]([C@H](C)CCC(=O)NS(C)(=O)=O)CC[C@@H]23)[C@@]2(C)CC[C@@H](O)C[C@@H]12`: the EC50 was found to be 700 nM in [1] and 50 nM at Bile acid receptor [33]. Besides, the Ratio EC50 in the data set listed under Homo sapiens was found to be 14. For the same molecule, the Drug uptake in data set [2] stood at 7183 nmol/kg; in [3] it was 1361 nmol/kg; in [17], 27920 nmol/kg; in data set [20], 15560 nmol/kg; in data set [21], 2863 nmol/kg; in data set [22] it was 1486 nmol/kg. The concentration at 0.5 h in data set [4] is 136 nM; in data set [23], 388 nM. The concentration at 3 h in data set [5] was 15 nM; in data set [24] it was 298 nM. For the same molecule, the Kp at 0.5 h in data set [6] and in [26] was 53 throughout. In addition, the Kp at 3 h in [7] is 124; in data set [27], 52. Moreover, the AUC in data set [8] was 1.19 µM·h; with Mus musculus [9], “Bld”; in the data set with Mus musculus [10] it was 5.416 µM·h; in the data set on Mus musculus [11] it was 0.216 µM·h. For the same molecule, the Cmax in data set [12] is 610 nM; in the data set on Mus musculus [13], “Bld”; with Mus musculus [14], 270 nM; in the data set with Mus musculus [15], 446 nM. Besides, the Tmax was 30 min in data set [16], 480 min in the data set with Mus musculus [18] and 30 min with Mus musculus [19]. The concentration in [25] was 126 nM. Also, the Ratio was 21 in data set [28] and 12 in [29]. Also, the Activity entry with Mus musculus [30], in the data set on Mus musculus [31] and with Mus musculus [32] was “Dose-dependent effect” each time. Further, the Efficacy in data set [34] was 191%.
Regarding `C[C@H](CCn1oc(=O)[nH]c1=O)[C@H]1CC[C@H]2[C@@H]3[C@H](O)C[C@@H]4C[C@H](O)CC[C@]4(C)[C@H]3CC[C@]12C`, the Efficacy in data set [35] stood at 111%. For the same molecule, on Bile acid receptor [36], the EC50 was 1220 nM.
